The species entered for the assay is Oryctolagus cuniculus. Nature of the assay: Inhibitory activity against U-46,619-induced rabbit platelet aggregation was determined. It counts as functional.

Regarding `O=C(O)COc1c(F)cc(SCCNS(=O)(=O)c2ccc(Cl)cc2)cc1F`, inhibition (Oryctolagus cuniculus) was half-maximal at 0.34 µM (IC50).

`O=C(O)COc1c(F)cc([S+]([O-])CCNS(=O)(=O)c2ccc(Cl)cc2)cc1F` (racemic; form 1): the IC50 is at least 1 µM.

Consider `O=C(O)COc1c(F)cc([S+]([O-])CCNS(=O)(=O)c2ccc(Cl)cc2)cc1F` (racemic; form 2), for which the IC50 was 18.9 µM.

The compound `O=C(O)COc1c(F)cc([S+]([O-])CCNS(=O)(=O)c2ccc(Cl)cc2)cc1F` (stereo in doubt; (-/-)4b) had an IC50 of 13.3 µM.

The term IC50 denotes the concentration that gives 50% inhibition.

The values above are taken from ChEMBL document CHEMBL1130537, “Asymmetric synthesis of the sulfoxide metabolite of ON-579 by the kagan protocol” (Bioorg Med Chem Lett, 1997).
